In US12398110B2, “Second generation inhibitors of mitochondrial permeability transition pore with improved plasma stability” (Oregon Health & Science University, priority 2019, dated 2025):
Like-named read-outs stand apart in the source and are kept apart here.

How the values were obtained:
[1] = test system: col6a1 zebrafish morphants; test: Birefringence (muscle structure) in col6a1 zebrafish morphants; assay type: in vivo; conditions: 48 hpf
Description: Muscle structure was assessed by birefringence analysis at 48 hpf, a time when muscle tissue is fully developed and organized muscle fibers start to show anisotropic features. A high percentage of severe birefringence abnormality (>75%, FIG. 6C) was detected in col6a1 morphants, indicating major defects of muscle fiber development and organization.
Morpholino antisense injection and treatment. Knock-down of col6a1 gene expression was obtained with a previously published morpholino ^[25] with sequence GAGAGCGGAAGACGAACCTTCATTC (SEQ ID NO: 2; GeneTools, Inc.). A control morpholino with no sequence homology in the zebrafish genome was used in parallel (CCTCTTACCTCAGTTACAATTTATA; SEQ ID NO: 3). Zebrafish eggs from wild-type matings were injected at the 1-2 cell stage with approximately 10 nL of 0.1 mm morpholino solution (corresponding to 4 ng of morpholino) using a WPI pneumatic PicoPump PV820 injector (World Precision Instruments, Inc.). […]
Birefringence. Muscle structure was monitored by birefringence analysis, taking advantage of muscle anisotropy, which is the ability of muscle fibers to refract polarized light. […] With this set-up, light refracted by muscle fibers (due to the pseudo-crystalline array of sarcomeres) is transmitted and analyzed. Integrated area of birefringence was calculated using ImageJ software. […]

[2] = test system: col6a1 zebrafish morphants; test: Survival of col6a1 zebrafish morphants; assay type: in vivo
From the text: In FIG. 6D, the left panel represents data from embryos injected with a scrambled morpholino (scrd_MO, open squares), Exon 9 col6a1 morpholino (col6a1_MO, closed squares) and col6a1_MO embryos treated with TR001 at 0.1 μm (open circles), 1.0 μm (open triangles), 10 μm (open diamonds). Right panel represents data from embryos injected with a scrambled morpholino (scrd_MO, open squares), Exon 9 col6a1 morpholino (col6a1_MO, closed squares) and col6a1_MO embryos treated with 63 at […] (closed circles), 1.0 μm (closed triangles), 10 μm (closed diamonds). Embryos were treated with oligomycin, FCCP, rotenone (R) and antimycin A (A) as indicated. Results are presented as mean±SEM. Both graphs report data from 5 independent experiments with n=20 for each treatment. Error bars are reported as SEM. FIG. 6E, Survival of DMSO-treated zebrafish injected with the scrambled morpholino (open squares), DMSO-treated col6a1 morphants (closed squares) and col6a1 morphants treated with TR001 (0.1 μm, open triangles; 1.0 μm, open circles; 10 μm, open diamonds) or 63 (0.1 μm, closed triangles; 1.0 μm, closed circles; 10 μm, closed diamonds) were recorded for 30 days. Treatment started at 21 hpf and repeated at 4 dpf (arrows). Data report the percentage of surviving fish and are mean±SEM from 3 independent experiments (n=15 for each condition in each set).
Finally, fish survival was also assessed. Fifty percent of col6a1 morphant embryos treated with 0.1 μm of TR001 survived 7 days longer than col6a1 morphants treated with DMSO (p<0.0001 from 3 to 12 dpf), and 20% were still alive at 30 dpf (i.e., after 29 days of treatment) (FIG. 6E).
(§1) Morpholino antisense injection and treatment. Knock-down of col6a1 gene expression was obtained with a previously published morpholino ^[25] with sequence GAGAGCGGAAGACGAACCTTCATTC (SEQ ID NO: 2; GeneTools, Inc.). A control morpholino with no sequence homology in the zebrafish genome was used in parallel (CCTCTTACCTCAGTTACAATTTATA; SEQ ID NO: 3). Zebrafish eggs from wild-type matings were injected at the 1-2 cell stage with approximately 10 nL of 0.1 mm morpholino solution (corresponding to 4 ng of morpholino) using a WPI pneumatic PicoPump PV820 injector (World Precision Instruments, Inc.). Zebrafish embryos were dechorionated at 20 hours post fertilization (hpf) and treated at 21 hpf with increasing doses (0.1, 1 and 10 μm) of both TR001 and 63 compounds dissolved in fish water with 1% DMSO (vehicle).
Survival. Zebrafish survival was monitored every 3 days for 30 days. Drug treatment with both TR001 and 63 dissolved in fish water with 1% DMSO started at 21 hpf. After 3 days of treatment (4 days post fertilization, dpf), zebrafish were moved to a bigger tank (50 mL) with fresh compounds dissolved in 1% DMSO. As a control vehicle, fish water with 1% DMSO was used.

[3] = Plasma stability determination in mouse plasma; assay type: in vitro ADME; conditions: mouse
Description: Plasma stability determination. The degradation of TR001 in the presence of mouse plasma (from Innovative Research) was used to predict the plasma stability of the compound to esterase catalyzed hydrolysis. A positive control for plasma cholinesterase, propantheline bromide, was included in all assays. Briefly, murine plasma was incubated with 1 μm TR001. Aliquots were removed at t=0, 5, 15, 30, and 60 and 120 min and quenched with acetonitrile containing structurally related compound (TR073) as the internal standard. The amount of TR001 remaining in the supernatant was assessed by LC-MS/MS in multiple reaction monitoring mode (MRM) using a 4000 QTRAP (SCIEX) with electrospray ionization source. The instrument was operated in negative mode with source parameters: source voltage […], GS1 50, GS2 50, CUR 30, TEM 650 and CAD gas MED. Optimal MRM transitions were obtained by direct infusion of the pure compound into the source. The mass spectrometer was interfaced to a Shimadzu (Columbia, MD) SIL-20AC XR auto-sampler maintained at 35° C. followed by 2 LC-20AD XR LC pumps. The internal standard and compound of interest were resolved using a Gemini-NX C18 50×2.1 mm column (Phenomenex) with 0.1% formic acid (solvent A) and 0.1% formic acid in acetonitrile (solvent B). The injection volume was 10 μL at a flow rate of 0.75 mL/min. The gradient elution was 10% B to 95% B over 5 min and held at 95% for 1 min before returning to start conditions. The column was maintained at 40° C. using a Shimadzu CTO-20AC column oven. Data were acquired using Analyst 1.6.2 and analyzed using Multiquant 3.0.1 software. The first-order rate constant for substrate depletion was determined from a linear least squares fit of the natural log of the percent parent compound remaining versus time. The rate constant was used to calculate the plasma half-life as an indicator of stability.

[4] = test system: col6a1 zebrafish morphants; test: Spontaneous coiling events in col6a1 zebrafish morphants; assay type: in vivo; conditions: 24 hpf, 3 hours of treatment, 0.1, 1 or 10 μm
Description: (§2) Zebrafish embryos were injected with col6a1 morpholino at the 1-cell stage, dechorionated at 20 hpf and treated at 21 hpf with 0.1, 1 or 10 μm of either TR001 or 63. DMSO-treated embryos injected with a scrambled morpholino were used as a control. […] It should be noted that in these protocols, embryos were exposed to drugs for a longer period of time than in the spontaneous coiling experiments. This difference may help to explain why TR001 was as effective at 0.1 μm as it was at 1 and 10 μm.
Morpholino antisense injection and treatment. Knock-down of col6a1 gene expression was obtained with a previously published morpholino ^[25] with sequence GAGAGCGGAAGACGAACCTTCATTC (SEQ ID NO: 2; GeneTools, Inc.). A control morpholino with no sequence homology in the zebrafish genome was used in parallel (CCTCTTACCTCAGTTACAATTTATA; SEQ ID NO: 3). […]
Motor activity. The number of spontaneous coiling events performed in 15 seconds by single zebrafish embryos was recorded at 24 hpf by light microscopy. Touch-evoked escape responses were recorded at 48 hpf by observing the ability of zebrafish embryos to escape after a tail-touch with a little tip. […]

[5] = test system: col6a1 zebrafish morphants; test: Touch-evoked escape response in col6a1 zebrafish morphants; assay type: in vivo; conditions: 48 hpf
Description: as §2, §1
Motor activity. The number of spontaneous coiling events performed in 15 seconds by single zebrafish embryos was recorded at 24 hpf by light microscopy. Touch-evoked escape responses were recorded at 48 hpf by observing the ability of zebrafish embryos to escape after a tail-touch with a little tip. Embryos were subdivided in 4 groups according to the observed phenotype: paralyzed embryos, score 0; underdeveloped embryos showing only coiling events, score 1; embryos showing lower motility, score 2; normal embryos, score 3.

[6] = test system: mitochondria; conditions: from Roy et al. [12]; cited from earlier work

Structure (SMILES) | muscle structure by birefringence [1] | survival (in words) ([2]; 1 μm) | survival (in words) ([2]; 10 μm) | survival (in words) ([2]; lowest concentration tested (0.1 μm)) | half-life at 1 µM ([3]; plasma, read-out: half-life (t1/2) in plasma) | spontaneous coiling events [4] | touch-evoked escape response (motility) ([5]; 0.1-1.0 μM) | touch-evoked escape response (motility) ([5]; 10 μm) | half-life at 1 µM ([3]; read-out: Mouse Plasma t1/2) | mitochondrial toxicity [6]
Cc1ccc(Cl)cc1NC(=O)c1cc(-c2ccc(F)c(O)c2)on1 [Compound 63, reference compound] | minimal effect | ineffected | ineffected | decreased activity compared to TR001 | 0.35 h | no effect | minimal recovery | no longer seen | – | –
COc1ccc(-c2cc(C(=O)Nc3cc(Cl)cnc3C)nn2C)cc1O [Compound 74] | – | – | – | – | – | – | – | – | 2.52 h | exhibited mitochondrial toxicity
COc1ccc(-c2cc(C(=O)Nc3cc(Cl)ccc3C)nn2C)cc1O [Compound 73] | – | – | – | – | – | – | – | – | 1.42 h | exhibited mitochondrial toxicity
Cc1ccc(Cl)cc1NC(=O)c1cc(-c2ccc(F)c(O)c2)[nH]n1 [Compound 72] | – | – | – | – | – | – | – | – | 8.88 h | exhibited mitochondrial toxicity
